Laboratory results reported in the NIST ThermoML archive (doi:10.1016/j.jct.2015.02.010).
Values joined by “and” are separate entries in the source; they are usually repeats but may differ in a detail not shown here. Equal entries are not always repeated. ± gives the expanded uncertainty stated by the source.

What was measured:
[1] = Molar enthalpy of transition or fusion; conditions: Crystal; DSC
[2] = Crystal; for vapor or sublimation pressure: Calculated from knudsen effusion weight loss; for Normal melting temperature: DTA

## CC(=O)Oc1ccccc1C(=O)O [2-acetoxybenzoic acid]
[1]
  Molar enthalpy of transition or fusion: 8.09 ± 0.174 kcal/mol
[2]; 341.11 K
  vapor or sublimation pressure: 0.00012 ± 2e-05 kPa and 0.000119 ± 2e-05 kPa
[2]; 343.24 K
  vapor or sublimation pressure: 0.000147 ± 2.1e-05 kPa and 0.000158 ± 2.1e-05 kPa
[2]; 345.28 K
  vapor or sublimation pressure: 0.000194 ± 2.1e-05 kPa and 0.000203 ± 2.1e-05 kPa
[2]; 347.1 K
  vapor or sublimation pressure: 0.00023 ± 2.2e-05 kPa and 0.000238 ± 2.2e-05 kPa
[2]; 349.24 K
  vapor or sublimation pressure: 0.00029 ± 2.2e-05 kPa and 0.000305 ± 2.3e-05 kPa
[2]; 351.27 K
  vapor or sublimation pressure: 0.000378 ± 2.4e-05 kPa and 0.000387 ± 2.4e-05 kPa
[2]; 353.1 K
  vapor or sublimation pressure: 0.000478 ± 2.6e-05 kPa and 0.000471 ± 2.6e-05 kPa
[2]; 355.28 K
  vapor or sublimation pressure: 0.000599 ± 6.4e-05 kPa and 0.000643 ± 6.4e-05 kPa
[2]; 357.27 K
  vapor or sublimation pressure: 0.000744 ± 8.4e-05 kPa and 0.000796 ± 8.5e-05 kPa
[2]; 359.23 K
  vapor or sublimation pressure: 0.00089 ± 0.00011 kPa and 0.000966 ± 0.00011 kPa
[2]; 361.11 K
  vapor or sublimation pressure: 0.001165 ± 9.3e-05 kPa
[2]
  Normal melting temperature: 134.23 ± 0.39 °C

## CC(=O)Oc1cccc(C(=O)O)c1 [3-acetoxybenzoic acid]
[1]
  Molar enthalpy of transition or fusion: 6.28 ± 0.146 kcal/mol
[2]; 344.16 K
  vapor or sublimation pressure: 0.000129 ± 2.1e-05 kPa and 0.000124 ± 2e-05 kPa and 0.000123 ± 2e-05 kPa
[2]; 346.15 K
  vapor or sublimation pressure: 0.000158 ± 2.1e-05 kPa and 0.000163 ± 2.1e-05 kPa and 0.000157 ± 2.1e-05 kPa
[2]; 348.2 K
  vapor or sublimation pressure: 0.000198 ± 2.1e-05 kPa and 0.000199 ± 2.1e-05 kPa and 0.000205 ± 2.1e-05 kPa
[2]; 350.13 K
  vapor or sublimation pressure: 0.000251 ± 2.2e-05 kPa and 0.00025 ± 2.2e-05 kPa and 0.000257 ± 2.2e-05 kPa
[2]; 353.17 K
  vapor or sublimation pressure: 0.000355 ± 2.4e-05 kPa and 0.000357 ± 2.4e-05 kPa and 0.00037 ± 2.4e-05 kPa
[2]; 356.21 K
  vapor or sublimation pressure: 0.000497 ± 2.7e-05 kPa and 0.000499 ± 2.7e-05 kPa and 0.00051 ± 2.7e-05 kPa
[2]; 358.16 K
  vapor or sublimation pressure: 0.000631 ± 3e-05 kPa and 0.000652 ± 3.1e-05 kPa
[2]; 360.17 K
  vapor or sublimation pressure: 0.000813 ± 3.5e-05 kPa and 0.00081 ± 3.5e-05 kPa
[2]; 362.16 K
  vapor or sublimation pressure: 0.000967 ± 5.3e-05 kPa and 0.000966 ± 5.3e-05 kPa and 0.001004 ± 8.2e-05 kPa
[2]
  Normal melting temperature: 131.61 ± 0.39 °C

## CC(=O)Nc1cccc(C(=O)O)c1 [3-(acetylamino)benzoic acid]
[1]
  Molar enthalpy of transition or fusion: 10.1 ± 0.234 kcal/mol
[2]; 423.22 K
  vapor or sublimation pressure: 0.000156 ± 2.1e-05 kPa
[2]; 425.28 K
  vapor or sublimation pressure: 0.000193 ± 2.1e-05 kPa and 0.000189 ± 2.1e-05 kPa
[2]; 427.09 K
  vapor or sublimation pressure: 0.000223 ± 2.2e-05 kPa and 0.000219 ± 2.1e-05 kPa
[2]; 429.23 K
  vapor or sublimation pressure: 0.000279 ± 2.2e-05 kPa and 0.000283 ± 2.2e-05 kPa
[2]; 431.28 K
  vapor or sublimation pressure: 0.000336 ± 2.3e-05 kPa and 0.000341 ± 2.3e-05 kPa
[2]; 433.24 K
  vapor or sublimation pressure: 0.00041 ± 2.5e-05 kPa and 0.000419 ± 2.5e-05 kPa
[2]; 435.1 K
  vapor or sublimation pressure: 0.000495 ± 2.7e-05 kPa and 0.000496 ± 2.7e-05 kPa
[2]; 437.29 K
  vapor or sublimation pressure: 0.000619 ± 3e-05 kPa and 0.000621 ± 3e-05 kPa
[2]; 439.23 K
  vapor or sublimation pressure: 0.000751 ± 3.3e-05 kPa and 0.000744 ± 3.3e-05 kPa
[2]; 441.1 K
  vapor or sublimation pressure: 0.000886 ± 5.1e-05 kPa and 0.000907 ± 5.1e-05 kPa
[2]
  Normal melting temperature: 249.04 ± 0.39 °C

## CC(=O)Nc1ccccc1C(=O)O [2-acetamidobenzoic acid]
[1]
  Molar enthalpy of transition or fusion: 7.01 ± 0.155 kcal/mol
[2]; 367.17 K
  vapor or sublimation pressure: 8.3e-05 ± 2e-05 kPa
[2]; 369.28 K
  vapor or sublimation pressure: 0.000109 ± 2e-05 kPa and 0.000106 ± 2e-05 kPa and 0.000108 ± 2e-05 kPa
[2]; 371.16 K
  vapor or sublimation pressure: 0.000128 ± 2.1e-05 kPa
[2]; 373.16 K
  vapor or sublimation pressure: 0.00016 ± 2.1e-05 kPa and 0.000163 ± 2.1e-05 kPa
[2]; 375.26 K
  vapor or sublimation pressure: 0.000207 ± 2.1e-05 kPa and 0.00021 ± 2.1e-05 kPa
[2]; 377.16 K
  vapor or sublimation pressure: 0.000248 ± 2.2e-05 kPa and 0.000255 ± 2.2e-05 kPa and 0.000258 ± 2.2e-05 kPa
[2]; 379.19 K
  vapor or sublimation pressure: 0.000305 ± 2.3e-05 kPa and 0.000303 ± 2.3e-05 kPa and 0.000308 ± 2.3e-05 kPa
[2]; 381.29 K
  vapor or sublimation pressure: 0.000385 ± 2.4e-05 kPa and 0.000373 ± 2.4e-05 kPa and 0.000378 ± 2.4e-05 kPa
[2]; 383.16 K
  vapor or sublimation pressure: 0.000438 ± 2.5e-05 kPa
[2]; 385.15 K
  vapor or sublimation pressure: 0.000577 ± 2.9e-05 kPa and 0.000561 ± 2.8e-05 kPa and 0.000574 ± 2.9e-05 kPa
[2]; 387.26 K
  vapor or sublimation pressure: 0.000697 ± 8.4e-05 kPa and 0.000711 ± 8.4e-05 kPa and 0.00078 ± 8.5e-05 kPa
[2]; 389.15 K
  vapor or sublimation pressure: 0.000829 ± 3.5e-05 kPa and 0.00084 ± 3.6e-05 kPa
[2]
  Normal melting temperature: 181.96 ± 0.41 °C
